Data reported in ChEMBL document CHEMBL4184181, “Evaluation of alkylating pyrrole-imidazole polyamide conjugates by a novel method for high-throughput sequencer” (Bioorg Med Chem, 2018).
Calls of active or inactive are those of the source. The rule behind the calls is not given here.

Columns and labels:
[1] = species on record: Bos taurus; test: Alkylating activity at calf thymus DNA containing adenine at seventh position of motif by MR method; format: functional
[2] = species on record: Bos taurus; test: Alkylating activity at ACTAGTG sequence of calf thymus DNA assessed as enrichment ratio by measuring ratio of sample to input control after 1 hr by MERMADE method; format: functional
[3] = species on record: Bos taurus; test: Alkylating activity at ACCACTA sequence of calf thymus DNA assessed as enrichment ratio by measuring ratio of sample to input control after 1 hr by MERMADE method; format: functional
[4] = species on record: Bos taurus; test: Alkylating activity at TACACTA sequence of calf thymus DNA assessed as enrichment ratio by measuring ratio of sample to input control after 1 hr by MERMADE method; format: functional
[5] = species on record: Bos taurus; test: Alkylating activity at ATCTCTA sequence of calf thymus DNA assessed as enrichment ratio by measuring ratio of sample to input control after 1 hr by MERMADE method; format: functional
[6] = species on record: Bos taurus; test: Alkylating activity at ACCATTA sequence of calf thymus DNA assessed as enrichment ratio by measuring ratio of sample to input control after 1 hr by MERMADE method; format: functional
[7] = species on record: Bos taurus; test: Alkylating activity at CCTCTAC sequence of calf thymus DNA assessed as enrichment ratio by measuring ratio of sample to input control after 1 hr by MERMADE method; format: functional
[8] = species on record: Bos taurus; test: Alkylating activity at CCTCAAG sequence of calf thymus DNA assessed as enrichment ratio by measuring ratio of sample to input control after 1 hr by MERMADE method; format: functional
[9] = species on record: Bos taurus; test: Alkylating activity at ATCACTA sequence of calf thymus DNA assessed as enrichment ratio by measuring ratio of sample to input control after 1 hr by MERMADE method; format: functional
[10] = species on record: Bos taurus; test: Alkylating activity at AGTGGTA sequence of calf thymus DNA assessed as enrichment ratio by measuring ratio of sample to input control after 1 hr by MERMADE method; format: functional
[11] = species on record: Bos taurus; test: Alkylating activity at CCACTAG sequence of calf thymus DNA assessed as enrichment ratio by measuring ratio of sample to input control after 1 hr by MERMADE method; format: functional
[12] = species on record: Bos taurus; test: Alkylating activity at TCACTAA sequence of calf thymus DNA assessed as enrichment ratio by measuring ratio of sample to input control after 1 hr by MERMADE method; format: functional
[13] = species on record: Bos taurus; test: Alkylating activity at ACCTCTA sequence of calf thymus DNA assessed as enrichment ratio by measuring ratio of sample to input control after 1 hr by MERMADE method; format: functional
[14] = species on record: Bos taurus; test: Alkylating activity at CCACTAA sequence of calf thymus DNA assessed as enrichment ratio by measuring ratio of sample to input control after 1 hr by MERMADE method; format: functional
[15] = species on record: Bos taurus; test: Alkylating activity at ACCTCAA sequence of calf thymus DNA assessed as enrichment ratio by measuring ratio of sample to input control after 1 hr by MERMADE method; format: functional
[16] = species on record: Bos taurus; test: Alkylating activity at CCTCTAA sequence of calf thymus DNA assessed as enrichment ratio by measuring ratio of sample to input control after 1 hr by MERMADE method; format: functional
[17] = species on record: Bos taurus; test: Alkylating activity at TAGTGAA sequence of calf thymus DNA assessed as enrichment ratio by measuring ratio of sample to input control after 1 hr by MERMADE method; format: functional
[18] = species on record: Bos taurus; test: Alkylating activity at CCTCTAG sequence of calf thymus DNA assessed as enrichment ratio by measuring ratio of sample to input control after 1 hr by MERMADE method; format: functional
[19] = species on record: Bos taurus; test: Alkylating activity at CACTAGA sequence of calf thymus DNA assessed as enrichment ratio by measuring ratio of sample to input control after 1 hr by MERMADE method; format: functional
[20] = species on record: Bos taurus; test: Alkylating activity at CTCTAGA sequence of calf thymus DNA assessed as enrichment ratio by measuring ratio of sample to input control after 1 hr by MERMADE method; format: functional
[21] = species on record: Bos taurus; test: Alkylating activity at CTAGTGA sequence of calf thymus DNA assessed as enrichment ratio by measuring ratio of sample to input control after 1 hr by MERMADE method; format: functional
[22] = species on record: Bos taurus; test: Alkylating activity at ACCTCAT sequence of calf thymus DNA assessed as enrichment ratio by measuring ratio of sample to input control after 1 hr by MERMADE method; format: functional
[23] = species on record: Bos taurus; test: Alkylating activity at TACCTCA sequence of calf thymus DNA assessed as enrichment ratio by measuring ratio of sample to input control after 1 hr by MERMADE method; format: functional
[24] = species on record: Bos taurus; test: Alkylating activity at CTCCACC sequence of calf thymus DNA assessed as enrichment ratio by measuring ratio of sample to input control after 1 hr by MERMADE method; format: functional
[25] = species on record: Bos taurus; test: Alkylating activity at CCTCACC sequence of calf thymus DNA assessed as enrichment ratio by measuring ratio of sample to input control after 1 hr by MERMADE method; format: functional
[26] = species on record: Bos taurus; test: Alkylating activity at GGTGAGA sequence of calf thymus DNA assessed as enrichment ratio by measuring ratio of sample to input control after 1 hr by MERMADE method; format: functional
[27] = species on record: Bos taurus; test: Alkylating activity at GAGGTGA sequence of calf thymus DNA assessed as enrichment ratio by measuring ratio of sample to input control after 1 hr by MERMADE method; format: functional
[28] = species on record: Bos taurus; test: Alkylating activity at CACCTCA sequence of calf thymus DNA assessed as enrichment ratio by measuring ratio of sample to input control after 1 hr by MERMADE method; format: functional
[29] = species on record: Bos taurus; test: Alkylating activity at ATACCTC sequence of calf thymus DNA assessed as enrichment ratio by measuring ratio of sample to input control after 1 hr by MERMADE method; format: functional
[30] = species on record: Bos taurus; test: Alkylating activity at CTACCTC sequence of calf thymus DNA assessed as enrichment ratio by measuring ratio of sample to input control after 1 hr by MERMADE method; format: functional
[31] = species on record: Bos taurus; test: Alkylating activity at ACCTCAG sequence of calf thymus DNA assessed as enrichment ratio by measuring ratio of sample to input control after 1 hr by MERMADE method; format: functional
[32] = species on record: Bos taurus; test: Alkylating activity at CCACTCC sequence of calf thymus DNA assessed as enrichment ratio by measuring ratio of sample to input control after 1 hr by MERMADE method; format: functional
[33] = species on record: Bos taurus; test: Alkylating activity at ACCTCAC sequence of calf thymus DNA assessed as enrichment ratio by measuring ratio of sample to input control after 1 hr by MERMADE method; format: functional
[34] = species on record: Bos taurus; test: Alkylating activity at ACTCCTC sequence of calf thymus DNA assessed as enrichment ratio by measuring ratio of sample to input control after 1 hr by MERMADE method; format: functional
[35] = species on record: Bos taurus; test: Alkylating activity at AGGTGAG sequence of calf thymus DNA assessed as enrichment ratio by measuring ratio of sample to input control after 1 hr by MERMADE method; format: functional
[36] = species on record: Bos taurus; test: Alkylating activity at GTGAGGA sequence of calf thymus DNA assessed as enrichment ratio by measuring ratio of sample to input control after 1 hr by MERMADE method; format: functional
[37] = species on record: Bos taurus; test: Alkylating activity at CGACCTC sequence of calf thymus DNA assessed as enrichment ratio by measuring ratio of sample to input control after 1 hr by MERMADE method; format: functional
[38] = species on record: Bos taurus; test: Alkylating activity at GAGGTTA sequence of calf thymus DNA assessed as enrichment ratio by measuring ratio of sample to input control after 1 hr by MERMADE method; format: functional
[39] = species on record: Bos taurus; test: Alkylating activity at CCACCTC sequence of calf thymus DNA assessed as enrichment ratio by measuring ratio of sample to input control after 1 hr by MERMADE method; format: functional
[40] = tested on: A549; test: Cytotoxicity against human A549 cells after 48 hrs by WST8 assay; format: functional, cell-based; settings: A549, 48 h

`CC(=O)Nc1cn(C)c(C(=O)Nc2cn(C)c(C(=O)Nc3cn(C)c(C(=O)Nc4cn(C)c(C(=O)NCC[C@@H](NC(=O)CCOCCOCCOCCOCCOCCOCCOCCOCCOCCOCCOCCOCCNC(=O)CCCC[C@@H]5SC[C@@H]6NC(=O)N[C@@H]65)C(=O)Nc5ccc(C(=O)Nc6cn(C)cc6C(=O)Nc6cn(C)cc6C(=O)Nc6ccc7[nH]c(C(=O)N8CC(CCl)c9c8cc(O)c8ccccc98)cc7c6)n5C)n4)n3)n2)n1` (stereo partly drawn) was tested, and the Activity [1] was “Active”, the Ratio [2] was 3.82 and the Ratio [3] was 5.11. It also gave a Ratio [4] of 3.63, a Ratio [5] of 3.46 and a Ratio [6] of 3.28. It also gave a Ratio [7] of 3.33, a Ratio [8] of 3.19 and a Ratio [9] of 4.94. The Ratio [10] was 3.37, the Ratio [11] was 4.13 and the Ratio [12] was 3.61. For the same compound, the Ratio [13] was 6.96, the Ratio [14] was 3.16 and the Ratio [15] was 4.19. For the same compound, the Ratio [16] was 3.79, the Ratio [17] was 4.34 and the Ratio [18] was 4.45. It also gave a Ratio [19] of 3.64, a Ratio [20] of 3.68 and a Ratio [21] of 3.82.

In the case of `CC(=O)Nc1cn(C)c(C(=O)Nc2cn(C)c(C(=O)Nc3cn(C)c(C(=O)Nc4cn(C)c(C(=O)NCC[C@@H](NC(=O)CCOCCOCCOCCOCCOCCOCCOCCOCCOCCOCCOCCOCCNC(=O)CCCC[C@@H]5SC[C@@H]6NC(=O)N[C@@H]65)C(=O)Nc5ccc(C(=O)Nc6cn(C)cc6C(=O)Nc6ccc7[nH]c(C(=O)N8CC(CCl)c9c8cc(O)c8ccccc98)cc7c6)n5C)n4)n3)n2)n1` (stereo partly drawn), the Ratio [22] is reported as 2.17, the Ratio [23] is reported as 2.48 and the Ratio [24] is reported as 2.06. For the same compound, the Ratio [25] was 2.65, the Ratio [26] was 2.06 and the Ratio [27] was 2.06. The Ratio [28] was 2.44, the Ratio [29] was 2.02 and the Ratio [30] was 2.12. It also gave a Ratio [31] of 2.05, a Ratio [32] of 2.04 and a Ratio [33] of 2.69. The Ratio [34] was 2, the Ratio [13] was 2.01 and the Ratio [35] was 2.24. The Ratio [15] was 2.07, the Ratio [36] was 2.02 and the Ratio [37] was 2. For the same compound, the Ratio [38] was 2.21 and the Ratio [39] was 2.4.

For `CC(=O)Nc1cn(C)c(C(=O)Nc2cn(C)c(C(=O)Nc3cn(C)c(C(=O)Nc4cn(C)c(C(=O)NCC[C@@H](NC(=O)OC(C)(C)C)C(=O)Nc5ccc(C(=O)Nc6cn(C)cc6C(=O)Nc6cn(C)cc6C(=O)Nc6ccc7[nH]c(C(=O)N8CC(CCl)c9c8cc(O)c8ccccc98)cc7c6)n5C)n4)n3)n2)n1` (stereo partly drawn), the IC50 [40] was 0.063 µM.

`CC(=O)Nc1cn(C)c(C(=O)Nc2cn(C)c(C(=O)Nc3cn(C)c(C(=O)Nc4cn(C)c(C(=O)NCC[C@@H](NC(=O)OC(C)(C)C)C(=O)Nc5ccc(C(=O)Nc6cn(C)cc6C(=O)Nc6ccc7[nH]c(C(=O)N8CC(CCl)c9c8cc(O)c8ccccc98)cc7c6)n5C)n4)n3)n2)n1` (stereo partly drawn) gave an IC50 [40] of 0.12 µM.
